In patent US20140045695A1, “Continuous Fiber Layer Comprising an Active Substance on the Basis of Bio-polymers, the Use Thereof, and Method for the Production Thereof” (priority 2008, published 2014):
Converted amounts (≈) assume the structure as drawn. Like-named read-outs stand apart in the source and are kept apart here.

Columns and labels:
[1] = Crystallinity studies by x-ray diffraction (WAXS in transmission); format: physicochemical
From the text: FIG. 2 crystallinity studies (WAXS in transmission) of the GGE active ingredient in the C16 spider silk protein formulations obtained by electrospinning compared to the pure substances (GGE or C16 powder);
FIG. 6 crystallinity studies (WAXS in transmission) of the clotrimazole active ingredient in the C16 spider silk protein formulations obtained by electrospinning compared to pure clotrimazole;
FIG. 9 crystallinity studies (WAXS in transmission) of the metazachlor active ingredient in the C16 spider silk protein formulations obtained by electrospinning compared to pure metazachlor;
FIG. 12 crystallinity studies (WAXS in transmission) of the Uvinul A+ active ingredient in the C16 spider silk protein formulations obtained by electrospinning compared to Uvinul A+ pure substance;
FIG. 16 crystallinity studies (WAXS in transmission) of the Uvinul A+ active ingredient in the R16 protein nonwoven (A) and S16 protein nonwoven (B) obtained by electrospinning compared to pure Uvinul A+;

[2] = cited from earlier work

**Q.** Which “crystallinity of the active ingredient in x-ray diffraction” value [1] does the source give for `Cc1cccc(C)c1N(Cn1cccn1)C(=O)CCl` [metazachlor] here?
**A.** significant crystalline proportions

**Q.** Which Solubility in water ([2]; 25° C.) does the source give for `Clc1ccccc1C(c1ccccc1)(c1ccccc1)n1ccnc1` [Clotrimazole] here?
**A.** <10 µg/mL

**Q.** With `NC(=O)N1c2ccccc2C=Cc2ccccc21` [Carbamazipine] as the compound, how does the Solubility in water ([2]; RT) read?
**A.** 945.1 µg/mL (≈ 4000 µM)
